Consider six compounds from patent publication US10160867B2, “Benzoxaborole-containing coating resistant to cellulose-supportable fungus” (THE PENN STATE RESEARCH FOUNDATION, priority 2015, dated 2018).

The structures appear in SMILES notation. Converted amounts (≈) assume the structure as drawn.

Common to all, as to format: cell-based
The subject of test [1] is Aspergillus fumigatus. As to the kind of experiment: 3 day MIC, broth microdilution in 25% PDB. The following applies: for MIC: 72 h. The method, then:
Stock solutions (concentrations of between 4,000 μg/mL to 10,000 μg/mL; stored at −18° C.) of the above antifungals were prepared in dimethyl sulfoxide (DMSO). The stock solutions were further diluted into sterile 25% potato dextrose broth (PDB) so that the diluted solutions could be used for the antifungal susceptibility studies. This way, a typical microdilution study would reach a final ratio of about 0.5-2% v/v of DMSO in 25% PDB.
Spore inocula were prepared in sterile distilled water with 0.1% Tween® 20 (a polysorbate surfactant), and a hemocytometer was used to determine the spore density. Typically, the spore inoculum was prepared fresh prior to each study, and the inoculum was appropriately diluted to a final concentration of 0.4-1×10^5 spores/mL or colony-forming unit (CFU)/mL in each study. The spore suspension can be stored in a refrigerator at 4° C. for up to one week.
The minimal inhibitory concentrations (MICs) for individual antifungal agents were determined by following a modified broth microdilution protocol CLSI (Clinical and Laboratory Standards Institute) M38-A2 [Clinical and Laboratory Standards Institute (2008) Reference method for broth dilution antifungal susceptibility testing of filamentous fungi—2nd edition: Approved Standard M38-A2, CLSI, Wayne, Pa.] where 25% potato dextrose broth (PDB) was used as the medium. The studies were performed in flat bottom, 96-well microtiter plates (Greiner Bio-One, Frickenhausen, Germany).
Plates sealed with clear polyester film (VWR, Radnor, Pa.) were incubated at a temperature of about 25° C. The progress of fungal growth was monitored at 48 hours and 72 hours.
(Broth dilution looks for growth in wells or tubes with falling amounts of substance.)

The subject of test [2] is Alternaria alternata. Put plainly: Fungus resistance test for painted surfaces containing antifungal additives (defacement rating). Details: key: 10 = no defacement, 0 = completely defaced. The following applies: +100 μg/mL in Olympic Home paint. The method, then:
(§1) A Defacement Rating is measured by estimating the percentage of surface defacement with 10 being no defacement and 0 begin completely defaced.
(§2) This test was used to evaluate the resistance of paint films containing antifungal additives to surface fungal growth.
(§3) Olympic® Home interior flat latex paint (PPG Industries, Pittsburgh, Pa.) and Valspar® QuikHide White flat interior paint (Valspar Corporation, Minneapolis, Minn.) were used for all studies unless otherwise noted. Stock solutions of the antifungal additives of interest were prepared in reagent grade dimethyl sulfoxide (DMSO; Alfa Aesar, Ward Hill, Mass.). Additives were spiked (by adding appropriate amounts of the antifungal stock solutions) into the liquid paint at specified concentrations. Samples of the additive-spiked paint were vigorously mixed with a vortex mixer for at least one minute to ensure uniform dispersion of the additive in the paint. […] Studies that use other brands of paint followed the same protocol as described for those using the Olympic® Home interior flat latex paint and Valspar® QuikHide paint.
(§4) Test surfaces were prepared in triplicate. In most cases, the tested conditions were repeated on a different date, again in triplicate. […] Two coats of paint were applied with a polyester brush to completely cover both faces of the filter paper disc, allowing at least four hours drying time between coats.
(§5) Nutrient-Salts Agar (NSA) medium was prepared according to ASTM method G21-13 in 100×15 mm sterile polystyrene petri dishes (VWR® Radnor, Pa.) with a solidified agar layer of about 3 to about 6 mm (⅛ to ¼ in.) in depth. The agar was allowed to solidify for at least 24 hours before being used. The painted test filter paper discs were placed in the center of the agar plates in a biosafety hood while wearing clean nitrile gloves.
(§6) The paint coatings were evaluated against three representative cellulose-supportable fungi: Stachybotrys chartarum, Penicillium chrysogenum, and Alternaria alternata. […] Fungal isolates of Alternaria alternata and Penicillium chrysogenum were obtained from the Plant Pathology and Environmental Microbiology Department at Penn State University.
(§7) A spore suspension of each of these fungi was prepared by pouring a 20-mL portion of autoclaved deionized water containing 0.01% Tween® 20 onto a subculture of each fungal species. Spores were counted with the use of a hemocytometer (Hausser Scientific, Horsham, Pa.) under a compound light microscope. Spore suspensions of Stachybotrys chartarum and Penicillium chrysogenum were diluted to 1×10^6 spores/mL with autoclaved deionized water. Spore suspensions of Alternaria alternata were used “as is” in the range of 200,000 to 400,000 spores/mL.
(§8) Painted test surfaces were inoculated with a spray bottle or with a sterile cotton-tipped applicator. To inoculate the sample with a spray bottle, the spore suspension was sprayed twice on the painted test discs with an autoclaved spray bottle that delivered approximately 0.14 g of fluid per spray. To inoculate the sample with a cotton-tipped applicator, an autoclaved cotton-tipped applicator was submerged in approximately 400 μL of the spore inoculum solution (spore concentrations described above) and applied evenly over the surface of the painted test surface twice. A fresh autoclaved cotton-tipped applicator was used for the application of each painted disc. All the paint studies with Alternaria alternata and Stachybotrys chartarum were inoculated using the spray bottle method. For studies with Penicillium chrysogenum using Olympic® Home paint, the spray bottle inoculation method was used. For studies with Penicillium chrysogenum using Valspar® QuikHide paint, the cotton-tipped applicator inoculation method was used.
(§9) After inoculation, the NSA agar plates were sealed with Parafilm®.

For test [3], the system named is Penicillium chrysogenum. Described as above. Details: key: 10 = no defacement, 0 = completely defaced. The method, then:
as §1, §2, §3, §4, §5, §6, §7, §8, §9

Test [4] deals with Stachybotrys chartarum. The description is as above. Details: key: 10 = no defacement, 0 = completely defaced. The conditions noted are these: +100 μg/mL in Olympic Home paint. The method, then:
as §1, §2, §3, §4, §5, §6, §7, §8, §9

[5] abbreviates: +100 μg/mL in Olympic Home paint, 7 days.
Setting [6] is: +100 μg/mL in Olympic Home paint, 14 days.
The mark [7] stands for this setting: +100 μg/mL in Olympic Home paint, 21 days.
Where [8] appears, read: +200 μg/mL in Olympic Home paint, 7 days.
The mark [9] stands for this setting: +200 μg/mL in Olympic Home paint, 14 days.
The mark [10] stands for this setting: +200 μg/mL in Olympic Home paint, 21 days.
[11] abbreviates: +200 μg/mL in Valspar QuikHide paint, 7 days.
Setting [12] is: +200 μg/mL in Valspar QuikHide paint, 14 days.
[13] abbreviates: +200 μg/mL in Valspar QuikHide paint, 21 days.

For the compound `CCCCNC(=O)OCC#CI` [IPBC, 3-Iodo-2-propynylbutylcarbamate], in test [1], the “3 day MIC” value stood at 0.4 µg/mL. Further, the “Average defacement rating ± standard deviation” value is 9.9 ± 0.4 in test [2] (7 days); 8.4 ± 2.7 in test [2] (14 days); 7.5 ± 3.4 in test [2] (21 days); 10.0 ± 0.0 in test [3] (setting [5]); 9.4 ± 0.4 in test [3] (setting [6]); 9.4 ± 0.4 in test [3] (setting [7]). Moreover, the “Average defacement rating ± standard deviation” value was 10.0 ± 0.0 in test [3] (setting [8]); 10.0 ± 0.0 in test [3] (setting [9]); 9.3 ± 0.8 in test [3] (setting [10]); 10.0 ± 0.0 in test [3] (setting [11]); 10.0 ± 0.0 in test [3] (setting [12]); 10.0 ± 0.0 in test [3] (setting [13]). Besides, the “Average defacement rating ± standard deviation” value in test [4] (7 days) was 9.9±0.3; in test [4] (14 days), 8.1 ± 1.5; in test [4] (21 days), 6.1±2.7.
Regarding `CCCCCCCCn1sccc1=O` [OIT, 2-Octyl-4-isothiazolin-3-one], the “Average defacement rating ± standard deviation” value in test [2] (7 days) was 8.1±0.3; in test [2] (14 days), 6.9 ± 1.0; in test [2] (21 days) it was 4.9±0.7; in test [3] (setting [5]) it was 10.0 ± 0.0; in test [3] (setting [6]) it was 10.0 ± 0.0; in test [3] (setting [7]), 9.3 ± 1.5. Moreover, the “Average defacement rating ± standard deviation” value amounted to 10.0 ± 0.0 in test [3] (setting [8]); 10.0 ± 0.0 in test [3] (setting [9]); 9.8 ± 0.4 in test [3] (setting [10]); 10.0 ± 0.0 in test [3] (setting [11]); 10.0 ± 0.0 in test [3] (setting [12]); 10.0 ± 0.0 in test [3] (setting [13]). Further, the “Average defacement rating ± standard deviation” value in test [4] (7 days) is on record as 9.9 ± 0.3; in test [4] (14 days), 8.2 ± 2.5; in test [4] (21 days), 6.9 ± 2.4.
In general, MIC refers to the least concentration at which growth counts as inhibited. As to `OB1OCc2cc(F)ccc21` [Compound B9, 5-Fluoro-1,3-dihydro-2,1-benzoxaborol-1-ol], the lowest concentration to inhibit growth in test [1] (MIC) was 0.5 µg/mL (≈ 3.29 µM). The “Average defacement rating ± standard deviation” value in test [2] (7 days) is reported as 7.4±1.8; in test [2] (14 days) it was 3.8 ± 0.9; in test [2] (21 days), 3.8±0.9; in test [3] (setting [5]), 3.7 ± 1.5; in test [3] (setting [6]) it was 0.0 ± 0.0; in test [3] (setting [7]), 0.0 ± 0.0. For the same compound, the “Average defacement rating ± standard deviation” value in test [3] (setting [8]) stood at 10.0 ± 0.0; in test [3] (setting [9]), 9.8 ± 0.4; in test [3] (setting [10]), 6.7 ± 3.9; in test [3] (setting [11]), 10.0 ± 0.0; in test [3] (setting [12]), 10.0 ± 0.0; in test [3] (setting [13]) it was 9.7 ± 0.6. Besides, the “Average defacement rating ± standard deviation” value is listed as 9.9±0.3 in test [4] (7 days), 4.4 ± 2.9 in test [4] (14 days) and 2.0 ± 2.8 in test [4] (21 days).
`N#Cc1c(Cl)c(Cl)c(Cl)c(C#N)c1Cl` [Chlorothalonil, chlorothalonil]: the MIC in test [1] was determined as 0.2 µg/mL (≈ 0.752 µM). Further, the “Average defacement rating ± standard deviation” value is listed as 1.9 ± 2.4 in test [2] (7 days); 0.5 ± 1.8 in test [2] (14 days); 0.5 ± 1.8 in test [2] (21 days); 4.9 ± 1.9 in test [3] (setting [5]); 0.0 ± 0.0 in test [3] (setting [6]); 0.0 ± 0.0 in test [3] (setting [7]). Moreover, the “Average defacement rating ± standard deviation” value is listed as 8.3 ± 1.4 in test [3] (setting [8]); 0.8 ± 2.0 in test [3] (setting [9]); 0.0 ± 0.0 in test [3] (setting [10]); 10.0 ± 0.0 in test [3] (setting [11]); 5.3 ± 0.6 in test [3] (setting [12]); 0.3 ± 0.6 in test [3] (setting [13]). Further, the “Average defacement rating ± standard deviation” value in test [4] (7 days) is 5.8 ± 3.0; in test [4] (14 days), 0.8 ± 1.8; in test [4] (21 days), 0.6 ± 1.7.
For `O=C1C2CC=CCC2C(=O)N1SC(Cl)(Cl)Cl` (centres unmarked) [Captan], the MIC in test [1] is 12.5 µg/mL (≈ 41.6 µM). Also, the “Average defacement rating ± standard deviation” value was determined as 0.1 ± 0.3 in test [2] (7 days); 0.1±0.3 in test [2] (7 days, listed as captan); 0.0 ± 0.0 in test [2] (14 days); 0.0 ± 0.0 in test [2] (21 days); 3.2 ± 1.8 in test [3] (setting [5]); 0.0 ± 0.0 in test [3] (setting [6]). Further, the “Average defacement rating ± standard deviation” value in test [3] (setting [7]) was 0.0 ± 0.0; in test [4] (7 days), 2.9 ± 3.3; in test [4] (14 days), 0.0 ± 0.0; in test [4] (21 days) it was 0.0 ± 0.0.
Consider `Oc1cc(Cl)ccc1Oc1ccc(Cl)cc1Cl` [Triclosan, triclosan], for which the “Average defacement rating ± standard deviation” value in test [2] (7 days) is given as 0.1 ± 0.4; in test [2] (14 days), 0.0 ± 0.0; in test [2] (21 days), 0.0 ± 0.0; in test [3] (setting [5]), 1.8 ± 1.4; in test [3] (setting [6]), 0.0 ± 0.0; in test [3] (setting [7]), 0.0 ± 0.0. Further, the “Average defacement rating ± standard deviation” value in test [3] (setting [8]) came to 9.3 ± 0.5; in test [3] (setting [9]) it was 0.2 ± 0.4; in test [3] (setting [10]), 0.0 ± 0.0; in test [3] (setting [11]), 4.0 ± 3.6; in test [3] (setting [12]), 0.0 ± 0.0; in test [3] (setting [13]), 0.0 ± 0.0. Also, the “Average defacement rating ± standard deviation” value in test [4] (7 days) was determined as 0.8 ± 1.4; in test [4] (14 days) it was 0.0 ± 0.0; in test [4] (21 days) it was 0.0 ± 0.0.
